Measurements: article PMC3361968 (Chemistry & biology, 2012)

Columns and labels:
cathepsin B = cathepsin B (Mus musculus, UniProt P10605); assay: activity-based labelling in living RAW cells, SDS-PAGE in-gel fluorescence; assay type: cell-based
cathepsin S = cathepsin S (Mus musculus, UniProt O70370); assay: as above; assay type: cell-based

cathepsin B, sequence (P10605 80-126): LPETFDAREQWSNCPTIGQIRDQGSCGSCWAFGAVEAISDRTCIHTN
cathepsin B, sequence (P10605 129-333): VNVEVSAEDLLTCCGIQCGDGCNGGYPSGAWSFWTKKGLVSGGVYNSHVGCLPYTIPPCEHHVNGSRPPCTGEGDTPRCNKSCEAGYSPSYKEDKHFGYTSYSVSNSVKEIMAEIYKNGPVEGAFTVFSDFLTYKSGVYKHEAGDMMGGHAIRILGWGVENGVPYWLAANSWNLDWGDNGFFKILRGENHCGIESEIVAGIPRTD

EC50 (cathepsin B): 1600 nM | EC50 (cathepsin S): 1300 nM
SMILES: CCN1C(=CC=CC=CC2=[N+](CCCCCC(=O)NCCCC[C@H](NC(=O)[C@H](Cc3ccccc3)NC(=O)OCc3ccccc3)C(=O)COC(=O)c3c(C)cccc3C)c3ccc(S(=O)(=O)O)cc3C2(C)C)C(C)(C)c2cc(S(=O)(=O)O)ccc21 [GB123]
